Experiment: Example 2: broiler performance (body weight gain, feed intake, FCR), PQQ in diet, 0 to 42 days
Assay type: in vivo, Broiler Chicken (Cobb 500)
Source text: Study Animals: • Animal: Broiler Chicken • Breed/Strain: Cobb 500 • Description: Day-of-hatch male chicks, sexed at hatchery • Sex: Male Total number of treatments: 4 Total number of replicates per treatment: 12 Total number of chicks per replicate: […] Initial age: day-of-hatch: 0 days-of-age Final age: 6 weeks: 42 days-of-age. Feed will be changed based on the days of each phase. • Starter feed will be weighed out and fed from day 0 to 7. • Grower feed will be weighed, issued and fed from day 8 until 21. • Finisher feed will be weighed, issued and fed from day 22 until 35. • Withdraw feed will be weighed, issued and fed from day 36 until 42. Performance: Feed consumption and pen weights are determined on days 0, 21, 35 and 42 to calculate average body weight (BW), body weight gain (BWG) and feed conversion ratio (FCR). Final bird weights: At the end of the grow-out period (Day 42), all birds are weighed, as well as any and all remaining feed. Randomized Complete Block Design with 4 treatments×12 replicates/treatment (40 birds/pen), randomized within blocks across the barn to minimize differences in environmental condition. The pen is the experimental unit. Dietary Treatments • Control (NC, negative control without PQQ) • 0.2 ppm PQQ • 0.5 ppm PQQ • 1 ppm PQQ The results are presented in tables 5 to 13 below for broilers fed diets from 0 to 42 days (d) of age. The values given are the mean and the P value.

Structure (SMILES): O=C(O)c1cc(C(=O)O)c2c(n1)C(=O)C(=O)c1cc(C(=O)O)[nH]c1-2 [PQQ, pyrroloquinoline quinone]
- Cumulative feed intake of broilers (0.2 ppm PQQ (T2), 1 t1o 42 d): 5365 g
- Cumulative feed intake of broilers (0.2 ppm PQQ (T2), 1 to1 21 d): 835 g
- feed intake of broilers (0.2 ppm PQQ (T2), 1 to 7 d): 158 g
- cumulative body weight gain of broilers (0.2 ppm PQQ (T2), 1 to 21 d): 624 g
- cumulative feed conversion ratio of broilers (0.2 ppm PQQ (T2), 1 to 21 d): 1.355
- cumulative body weight gain of broilers (0.2 ppm PQQ (T2), 1 to 35 d): 2125 g
- cumulative feed conversion ratio of broilers (0.2 ppm PQQ (T2), 1 to 35 d): 1.494
- cumulative body weight gain of broilers (0.2 ppm PQQ (T2), 1 to 42 d): 3204 g
- cumulative feed conversion ratio of broilers (0.2 ppm PQQ (T2), 1 to 42 d): 1.674
- feed intake of broilers (0.2 ppm PQQ (T2), 8 to 21 d): 677 g
- Cumulative feed intake of broilers (0.2 ppm PQQ (T2), 11 to 35 d): 3173 g
- feed intake of broilers (0.2 ppm PQQ (T2), 22 to 35 d): 2346 g
- feed intake of broilers (0.2 ppm PQQ (T2), 36 to 42 d): 2218 g
- Cumulative feed intake of broilers (0.5 ppm PQQ (T3), 1 t1o 42 d): 5316 g
- Cumulative feed intake of broilers (0.5 ppm PQQ (T3), 1 to1 21 d): 853 g
- feed intake of broilers (0.5 ppm PQQ (T3), 1 to 7 d): 156 g
- cumulative body weight gain of broilers (0.5 ppm PQQ (T3), 1 to 21 d): 608 g
- cumulative feed conversion ratio of broilers (0.5 ppm PQQ (T3), 1 to 21 d): 1.402
- cumulative body weight gain of broilers (0.5 ppm PQQ (T3), 1 to 35 d): 2123 g
- cumulative feed conversion ratio of broilers (0.5 ppm PQQ (T3), 1 to 35 d): 1.526
- cumulative body weight gain of broilers (0.5 ppm PQQ (T3), 1 to 42 d): 3166 g
- cumulative feed conversion ratio of broilers (0.5 ppm PQQ (T3), 1 to 42 d): 1.675
- feed intake of broilers (0.5 ppm PQQ (T3), 8 to 21 d): 699 g
- Cumulative feed intake of broilers (0.5 ppm PQQ (T3), 11 to 35 d): 3236 g
- feed intake of broilers (0.5 ppm PQQ (T3), 22 to 35 d): 2390 g
- feed intake of broilers (0.5 ppm PQQ (T3), 36 to 42 d): 2105 g
- Cumulative feed intake of broilers (1.0 ppm PQQ (T4), 1 t1o 42 d): 5449 g
- Cumulative feed intake of broilers (1.0 ppm PQQ (T4), 1 to1 21 d): 905 g
- feed intake of broilers (1.0 ppm PQQ (T4), 1 to 7 d): 159 g
- cumulative body weight gain of broilers (1.0 ppm PQQ (T4), 1 to 21 d): 630 g
- cumulative feed conversion ratio of broilers (1.0 ppm PQQ (T4), 1 to 21 d): 1.429
- cumulative body weight gain of broilers (1.0 ppm PQQ (T4), 1 to 35 d): 2178 g
- cumulative feed conversion ratio of broilers (1.0 ppm PQQ (T4), 1 to 35 d): 1.540
- cumulative body weight gain of broilers (1.0 ppm PQQ (T4), 1 to 42 d): 3188 g
- cumulative feed conversion ratio of broilers (1.0 ppm PQQ (T4), 1 to 42 d): 1.708
- feed intake of broilers (1.0 ppm PQQ (T4), 8 to 21 d): 747 g
- Cumulative feed intake of broilers (1.0 ppm PQQ (T4), 11 to 35 d): 3357 g
- feed intake of broilers (1.0 ppm PQQ (T4), 22 to 35 d): 2459 g
- feed intake of broilers (1.0 ppm PQQ (T4), 36 to 42 d): 2113 g
- influence on the body weight (each concentration (0.2, 0.5, 1.0 ppm)): positive influence

Source: US20210161174A1, “FEED ADDITIVE FOR FARMED ANIMALS” (ADISSEO FRANCE S.A.S., priority 2018, published 2021)
